A short description of series [1]: In vivo sweat reduction test. The following applies: Betaine-Glycerine (molar ratios 1:3), 10,5 wt.% calcium lactate, 37,5 wt.% water (figure 2).
The nature of series [2]: Liberation of actives and dermal penetration (pig-skin penetration test). As to conditions: 0,5% solution in betaine : malic acid (1:1 + 20% water; NADES). The protocol:
Actives liberation and dermal penetration behavior were evaluated for a 0,5% caffeine solution in an inventive eutectic solvent, betaine : malic acid (1:1 + 20% water; NADES).

A short description of series [3]: Solubility of actives in water and in eutectic solvents. The following applies: for solubility: water. In kind it is physicochemical. From the text:
Following is shown some examples for actives solubilization: • Dihydromyricetin • ∘ Solubility in Water 0.09% wt. • ∘ Solubility in Betaine:Urea 2:3 > 0.5% wt • ∘ Solubility in Betaine:Glucose 1:1 > 0.5% wt • ∘ Solubility in Betaine:Malic Acid 1:1 > 0.5% wt • ∘ Solubility in Proline:Sorbitol 1:1 > 0.5% wt • ∘ • Folic Acid • ∘ Solubility in Water 0.00016% wt. • ∘ Solubility in Betaine:Glycerol 1:3 > 1% wt • Thiamidol • ∘ Solubility in Water 0.017% wt. • ∘ Solubility in Betaine:Glycerol 1:3 > 2% wt

A short description of series [4]: Stability of 5 % vitamin C solutions in eutectic solvents versus water. As to conditions: 40 degrees, after 16 weeks. Format: physicochemical.

The structures appear in SMILES notation. Converted amounts (≈) assume the structure as drawn. Where two headings read alike, the source gives them in different places. Bounds are passed on as bounds.

The values below come from patent EP4011354A1, “NEW COSMETICS SOLVENTS BASED ON TWO DIFFERENT COMPONENTS” (priority 2020, dated 2022).

In the case of `CC(O)C(=O)O` (centres unmarked) [calcium lactate], in series [1], the sweat reduction result is given as “sweat reduction”.

For the compound `Cn1c(=O)c2c(ncn2C)n(C)c1=O` [caffeine], the dermal absorption result in series [2] (compared to the water solution) was “lower”. The liberation over time result in series [2] (compared to the water solution (figure 4)) is given as “surprisingly lower”.

For `Nc1nc2ncc(CNc3ccc(C(=O)N[C@@H](CCC(=O)O)C(=O)O)cc3)nc2c(=O)[nH]1` [Folic Acid], in series [3], the “Solubility in Betaine:Glycerol 1:3” value is recorded as > 1 % wt. Besides, the solubility in series [3] (read-out: Solubility in Water) amounted to 1.6 µg/mL (≈ 3.62 µM).

In the case of `O=C1O[C@H]([C@@H](O)CO)C(O)=C1O` [vitamin C, ascorbic acid], the remaining at 2688 h in series [4] (in the eutectic solvents (table 1, B-F), read-out: active still intact) was ≤ 82%; in series [4] (water, aqueous solution, read-out: initial vitamin C still measurable) it was 10%.

Regarding `O=C1c2c(O)cc(O)cc2O[C@H](c2cc(O)c(O)c(O)c2)[C@H]1O` [Dihydromyricetin], in series [3], the “Solubility in Betaine:Glucose 1:1” value is given as > 0.5 % wt, the “Solubility in Betaine:Malic Acid 1:1” value was > 0.5 % wt, the “Solubility in Betaine:Urea 2:3” value was > 0.5 % wt and the “Solubility in Proline:Sorbitol 1:1” value is > 0.5 % wt. The compound also gave a solubility in series [3] of 900 µg/mL (≈ 2810 µM).

In the case of `CC(C)C(=O)Nc1nc(-c2ccc(O)cc2O)cs1` [Thiamidol, Isobutylamido Thiazolyl Resorcinol], the “Solubility in Betaine:Glycerol 1:3” value in series [3] was > 2 % wt. Further, the solubility in series [3] (read-out: Solubility in Water) came to 170 µg/mL (≈ 611 µM).
